Among the test systems are MDA-MB-435; NCI-H460; DU-145; MCF7; U-251; SF-268; A549; UACC-62; CAKI-1; HOP-62; M14; SF-539; K562; OVCAR-5; CCRF-CEM; RPMI-8226; HCT-15; LOX IMVI; RXF 393.
Test in all cases: NCI tumour cell line growth inhibition, 48 h

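Five compound concentrations were applied to cells in 96-well plates for 48 hours; endpoints were derived by simple linear interpolation of the resulting dose-response curve. GI50: concentration for 50% inhibition of growth.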 The source made the active and inactive calls. Cut-off read from the data, not from the text of the source: active = GI50 up to about 1.1 µM and inactive = higher.

On to `CC(=O)[C@@]1(O)CC[C@H]2[C@@H]3C[C@H](C)C4=CC(=O)CC[C@]4(C)[C@H]3[C@@H](O)C[C@@]21C`, for which the GI50 in the test on MDA-MB-435, with NCI-H460, with DU-145, in the test with MCF7, with U-251 and in the test on SF-268 was > 100 µM (inactive) each time. The GI50 in the test with A549 was 60.1 µM (inactive); in the test on UACC-62, > 100 µM (inactive); in the test with CAKI-1, > 100 µM (inactive); with HOP-62 it was > 100 µM (inactive); in the test with M14 it was > 100 µM (inactive); with SF-539, > 100 µM (inactive). Moreover, the GI50 in the test on K562 is > 100 µM (inactive); with OVCAR-5, > 100 µM (inactive); in the test with CCRF-CEM, 14.1 µM (inactive); with RPMI-8226, < 0.01 µM (active); in the test with HCT-15, over 100 µM; in the test on LOX IMVI it was > 100 µM (inactive). The GI50 in the test with RXF 393 was > 100 µM (inactive).

In the case of `COCn1c(=O)n(C)c(=O)c2c1nc1c(c(=O)n(C)c(=O)n1COC)[n+]2[O-]`, the GI50 with MDA-MB-435 is 5.75 µM (inactive); in the test on NCI-H460, 3.15 µM (inactive); in the test on DU-145 it was 17.1 µM (inactive); in the test on MCF7, 20.4 µM (inactive); in the test with U-251, 5.85 µM (inactive); with SF-268, 6.65 µM (inactive). In addition, the GI50 is 23.4 µM (inactive) in the test on A549; 7.01 µM (inactive) in the test on UACC-62; 20.3 µM (inactive) in the test on CAKI-1; 9.23 µM (inactive) with HOP-62; 10.3 µM (inactive) with M14; 14.6 µM (inactive) in the test with SF-539. Further, the GI50 with K562 was 4.75 µM (inactive); in the test with OVCAR-5, 25.1 µM (inactive); in the test with CCRF-CEM, 5.37 µM (inactive); with RPMI-8226, 9.1 µM (inactive); in the test on HCT-15 it was 4.22 µM; with LOX IMVI it was 6.68 µM (inactive). Besides, the GI50 with RXF 393 was 0.789 µM (active).

Turning to `Cc1c(/N=N/c2ccc([N+](=O)[O-])cc2)nc2scc(-c3ccccc3)n12`, the GI50 is > 100 µM (inactive) in the test with MDA-MB-435; 71.9 µM (inactive) with NCI-H460; > 100 µM (inactive) in the test with DU-145; 49.4 µM (inactive) in the test with MCF7; > 100 µM (inactive) in the test with U-251; > 82.4 µM (inactive) in the test with SF-268. Further, the GI50 in the test on A549 is > 100 µM (inactive); in the test on UACC-62 it was > 65.6 µM (inactive); with CAKI-1 it was > 73.3 µM (inactive); with HOP-62, > 66.5 µM (inactive); with M14, > 100 µM (inactive); in the test on SF-539, 82.6 µM (inactive). In addition, the GI50 in the test on K562 is 22 µM (inactive); in the test with OVCAR-5, > 66.7 µM (inactive); in the test with CCRF-CEM, 21.7 µM (inactive); with RPMI-8226, 67.1 µM (inactive); with HCT-15, 31.6 µM; with LOX IMVI, 57.1 µM (inactive). Further, the GI50 with RXF 393 is 99.5 µM (inactive).

Take `CC(=O)O/C=C\OC1CCCC1`: the GI50 in the test with MDA-MB-435, in the test on NCI-H460, in the test on DU-145, in the test with MCF7, with U-251 and in the test with SF-268 was > 100 µM (inactive) throughout. The GI50 with A549, in the test on UACC-62, in the test on CAKI-1, with HOP-62, in the test with M14 and in the test on SF-539 was > 100 µM (inactive) in each case. The GI50 with K562 was > 100 µM (inactive); in the test on CCRF-CEM it was 21.9 µM (inactive); with RPMI-8226, > 100 µM (inactive); with HCT-15, over 100 µM; with LOX IMVI, > 100 µM (inactive); in the test on RXF 393, > 100 µM (inactive).

`COCn1c(C)c(C)c2c(=O)oc(N(C)C)nc21`: the GI50 in the test with MDA-MB-435, in the test on NCI-H460, in the test on DU-145, in the test with MCF7, with U-251 and in the test with A549 was > 100 µM (inactive) throughout. The GI50 was > 100 µM (inactive) in the test on UACC-62; 13.6 µM (inactive) in the test on CAKI-1; > 100 µM (inactive) with HOP-62; > 100 µM (inactive) in the test with M14; > 100 µM (inactive) with SF-539; > 100 µM (inactive) in the test with K562. The GI50 in the test with OVCAR-5 was > 100 µM (inactive); in the test with CCRF-CEM, > 100 µM (inactive); in the test on RPMI-8226, > 100 µM (inactive); in the test on HCT-15, over 100 µM; in the test on LOX IMVI, > 100 µM (inactive); with RXF 393, > 100 µM (inactive).

Take `O=C(O)C1CC=CCC1C(=O)Nc1cccc(O)c1` (stereo not drawn): the GI50 in the test with MDA-MB-435, in the test with NCI-H460, in the test with DU-145, in the test on MCF7, in the test on U-251 and in the test on SF-268 was > 100 µM (inactive) each time. Besides, the GI50 in the test on A549, in the test on UACC-62, with CAKI-1, with HOP-62, in the test on M14 and with SF-539 was > 100 µM (inactive) in each case. In addition, the GI50 was > 100 µM (inactive) with K562; > 100 µM (inactive) with OVCAR-5; > 100 µM (inactive) in the test on RPMI-8226; over 100 µM with HCT-15; > 100 µM (inactive) in the test on LOX IMVI; > 100 µM (inactive) in the test with RXF 393.

As for `CC(NC(=O)C(N)Cc1ccc(O)cn1)C(=O)O` (stereo not drawn), the GI50 with MDA-MB-435, with NCI-H460, with DU-145, with MCF7, with U-251 and in the test on SF-268 was > 100 µM (inactive) in each case. In addition, the GI50 in the test on A549, in the test with CAKI-1, with HOP-62, with SF-539, in the test with K562 and with OVCAR-5 was > 100 µM (inactive) in each case. Also, the GI50 is > 100 µM (inactive) with CCRF-CEM; > 100 µM (inactive) in the test with RPMI-8226; over 100 µM in the test with HCT-15; > 100 µM (inactive) with LOX IMVI; > 100 µM (inactive) with RXF 393.

For `COc1cc([C@@H]2c3cc(O)c(OC)cc3C=C(C(N)=O)[C@H]2C(N)=O)ccc1O`, the GI50 in the test with MDA-MB-435, in the test with NCI-H460, with DU-145, in the test with MCF7, with U-251 and in the test with SF-268 was > 100 µM (inactive) throughout. In addition, the GI50 with A549, in the test on CAKI-1, with HOP-62, with M14, in the test with SF-539 and in the test with K562 was > 100 µM (inactive) in each case. Besides, the GI50 with OVCAR-5 was > 100 µM (inactive); in the test on CCRF-CEM, > 100 µM (inactive); in the test with RPMI-8226, > 100 µM (inactive); with HCT-15 it was over 100 µM; with LOX IMVI, > 100 µM (inactive); in the test on RXF 393 it was > 100 µM (inactive).

As to `C/C(=C\CNc1ncnc2c1ncn2CCC(=O)OC(C)(C)C)CO`, the GI50 in the test on MDA-MB-435, in the test on NCI-H460, in the test on DU-145, in the test on MCF7, in the test on SF-268 and in the test with A549 was > 100 µM (inactive) each time. For the same compound, the GI50 with UACC-62, in the test on CAKI-1, in the test with HOP-62, in the test on M14, in the test on SF-539 and with K562 was > 100 µM (inactive) in each case. For the same compound, the GI50 in the test on OVCAR-5, in the test on CCRF-CEM, with RPMI-8226, with LOX IMVI and with RXF 393 was > 100 µM (inactive) throughout.

For the compound `Oc1ccc(/C=C/c2cc(O)cc3c2C(c2cc(O)cc(O)c2)C(c2ccc(O)c(O)c2)O3)cc1` (stereo not drawn), the GI50 is 32.6 µM (inactive) with MDA-MB-435; 35.1 µM (inactive) in the test with DU-145; 33.3 µM (inactive) in the test on MCF7; 31 µM (inactive) with U-251; 30.6 µM (inactive) with SF-268; 45.6 µM (inactive) with A549. The GI50 is 18.2 µM (inactive) in the test with UACC-62; 31.7 µM (inactive) in the test on CAKI-1; 35.9 µM (inactive) in the test on HOP-62; 31.9 µM (inactive) in the test on M14; 34.4 µM (inactive) in the test with SF-539; 35.6 µM (inactive) with OVCAR-5. The GI50 in the test on CCRF-CEM is 8.34 µM (inactive); in the test with RPMI-8226, 13.5 µM (inactive); with HCT-15, 20 µM; in the test with LOX IMVI it was 27 µM (inactive); with RXF 393 it was 41.3 µM (inactive).

On to `C(=N\Nc1nnc2c(n1)[nH]c1ccccc12)/c1cccnc1`, for which the GI50 in the test on MDA-MB-435, in the test with NCI-H460, in the test on DU-145, in the test with MCF7, in the test with U-251 and in the test with SF-268 was > 100 µM (inactive) in each case. Also, the GI50 with A549 is > 100 µM (inactive); with UACC-62, > 100 µM (inactive); with CAKI-1, > 100 µM (inactive); in the test on HOP-62, > 100 µM (inactive); with M14, 5.07 µM (inactive); in the test with SF-539, > 100 µM (inactive). In addition, the GI50 in the test on K562 is > 100 µM (inactive); in the test on OVCAR-5, > 100 µM (inactive); in the test with RPMI-8226 it was > 100 µM (inactive); in the test with HCT-15 it was over 100 µM; in the test with LOX IMVI, > 100 µM (inactive); with RXF 393, > 100 µM (inactive).

(Values after ChEMBL document CHEMBL1201862, “PubChem BioAssay data set” (2004).)
